Data on 14 compounds can be found in PubChem BioAssay (NCI).

Among the test systems are M19-MEL melanoma; SNB-19 CNS; DMS 114 small cell lung; DMS 273 small cell lung; NCI-H460 lung; SNB-78 CNS; LOX IMVI melanoma; DU-145 prostate; BT-549 breast; T-47D breast.
Assay in all cases: DTP human tumour cell line panel, 48 h

Each structure is given as a SMILES string. Several values for one entry are separate records, joined by “and”; a condition that tells them apart may be missing. Equal values may be shown once.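 Interpolation was linear, between the two tested concentrations surrounding the appropriate level; five concentrations were tested over 48 hours in 96-well plates. The concentration for 50% growth inhibition is given as GI50. TGI: concentration producing complete growth inhibition.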

In general, TGI refers to the concentration giving total growth inhibition. A lower TGI goes with greater sensitivity of the cells. Turning to `CC1=CCC[C@@]2(C)C(CC[C@@H]2C(C)/C=C/C(C)C)c2ccc(cc2C(=O)O)C[C@@H](O)CC1` (stereo partly specified), the TGI in the assay with M19-MEL melanoma was determined as 29.6 µM; in the assay on SNB-19 CNS it was 17.5 µM; in the assay with DMS 114 small cell lung, 40.3 µM; in the assay with DMS 273 small cell lung it was 34.2 µM; in the assay with NCI-H460 lung it was 20.1 µM; with SNB-78 CNS, 34.5 µM. Also, the TGI with LOX IMVI melanoma was found to be 19 µM.
Turning to `Cc1ccc(C)c(NC(=O)C(=O)CC(=O)C2CCOC2=O)c1` (stereo unspecified), the concentration for total growth inhibition (TGI) in the assay on M19-MEL melanoma, in the assay on SNB-19 CNS, with DMS 114 small cell lung, in the assay on DMS 273 small cell lung, with NCI-H460 lung and in the assay on SNB-78 CNS was above 100 µM in each case. The compound also displayed a TGI in the assay with LOX IMVI melanoma above 100 µM.
For orientation: GI50 means the concentration that inhibits growth by half. Take `CC1=NN(C(=O)c2ccccc2O)C(=O)/C1=C/c1ccc([N+](=O)[O-])cc1`: the TGI in the assay with M19-MEL melanoma is above 100 µM; with DU-145 prostate it was above 100 µM; with SNB-19 CNS, above 100 µM; in the assay on DMS 114 small cell lung, 7.81 µM; in the assay on BT-549 breast, above 100 µM; in the assay on T-47D breast, above 100 µM. The concentration for total growth inhibition (TGI) in the assay on NCI-H460 lung is above 100 µM; with SNB-78 CNS, above 100 µM; in the assay with LOX IMVI melanoma, above 40.9 µM. Besides, the GI50 in the assay with DU-145 prostate is 0.327 µM; in the assay on SNB-19 CNS it was 0.464 µM; in the assay on BT-549 breast it was 0.127 µM; in the assay on T-47D breast, 0.222 µM; in the assay with NCI-H460 lung, 0.414 µM; in the assay with LOX IMVI melanoma, 0.854 µM.
As for `NNC(=S)N/N=C(\CCCC(=O)NCCc1ccccc1)CC(=O)c1ccccc1`, the TGI in the assay on M19-MEL melanoma, with SNB-19 CNS, in the assay on DMS 114 small cell lung, in the assay with NCI-H460 lung and with SNB-78 CNS was above 100 µM throughout.
Take `O=C1c2ccccc2C2(O)Nc3cc(O)ccc3C12O` (stereo unspecified): the concentration for total growth inhibition (TGI) in the assay on SNB-19 CNS, with DMS 114 small cell lung, with DMS 273 small cell lung, in the assay with NCI-H460 lung, in the assay with SNB-78 CNS and with LOX IMVI melanoma was above 100 µM throughout.
With `O=C(c1ccccc1)c1c(NCC(O)CN2CCCC2)n(Cc2ccccc2)c(=O)n(Cc2ccccc2)c1=O` (stereo unspecified), the GI50 is 17.8 µM in the assay with DU-145 prostate; 63.4 µM in the assay on SNB-19 CNS; 13.1 µM with BT-549 breast; 21.3 µM in the assay with T-47D breast; 19.8 µM with NCI-H460 lung; 15.7 µM with LOX IMVI melanoma. Further, the TGI with DU-145 prostate is 34.7 µM; with SNB-19 CNS, above 100 µM; with BT-549 breast, 27 µM; in the assay on T-47D breast, 45.7 µM; with NCI-H460 lung, 38.9 µM; in the assay on LOX IMVI melanoma, 29.4 µM.
Turning to `O=[N+]([O-])c1ccc(Nc2ccccc2-c2ccccc2)c2nonc12`, the GI50 in the assay on DU-145 prostate is 28.2 µM; in the assay on SNB-19 CNS, 14.5 µM; in the assay on BT-549 breast it was 11.5 µM; in the assay with T-47D breast, 10.5 µM; with NCI-H460 lung, 13.1 µM; with LOX IMVI melanoma it was 12.8 µM. The TGI with DU-145 prostate is above 100 µM; in the assay with SNB-19 CNS, 32.3 µM; in the assay on BT-549 breast, 28.8 µM; in the assay with T-47D breast it was above 100 µM; in the assay on NCI-H460 lung, 42.3 µM; in the assay on LOX IMVI melanoma, 26.6 µM.
On to `CCSc1nnc2c(-c3ccccc3)n[nH]c2n1`, for which the concentration for total growth inhibition (TGI) in the assay with DU-145 prostate, in the assay with SNB-19 CNS, with BT-549 breast, in the assay with T-47D breast, with NCI-H460 lung and with LOX IMVI melanoma was above 100 µM each time.
For `O=[As](O)(O)c1ccc(NCc2ccccc2)cc1`, the TGI in the assay with DU-145 prostate, in the assay with SNB-19 CNS, with BT-549 breast, with T-47D breast, in the assay with NCI-H460 lung and in the assay with LOX IMVI melanoma was above 100 µM in each case.
For `O=C(O)CN(c1ccccc1)S(=O)(=O)c1ccc(NC(=O)c2ccccc2)cc1`, the TGI in the assay with M19-MEL melanoma, with SNB-19 CNS, in the assay on DMS 273 small cell lung, in the assay with NCI-H460 lung and in the assay on LOX IMVI melanoma was above 100 µM each time.
On to `COC(=O)Cc1cc(OC)c(OC)cc1Br`, for which the TGI with M19-MEL melanoma, in the assay on SNB-19 CNS, in the assay on DMS 114 small cell lung, in the assay on NCI-H460 lung and in the assay on SNB-78 CNS was above 100 µM in each case.
`Cc1ccc(C(=O)N(CCCN)[C@@H](c2nc3cc(Cl)ccc3c(=O)n2Cc2ccccc2)C(C)C)cc1`: the 50% growth inhibitory concentration (GI50) with DU-145 prostate was below 0.01 µM; with SNB-19 CNS it was below 0.01 µM; in the assay with BT-549 breast, 0.043 µM and 0.0103 µM; with T-47D breast, below 0.01 µM; with NCI-H460 lung, below 0.01 µM; with LOX IMVI melanoma, below 0.01 µM. Also, the concentration for total growth inhibition (TGI) in the assay with SNB-19 CNS was 2.12 µM and 1.9 µM; in the assay with BT-549 breast, 2.94 µM and 1.67 µM; in the assay on T-47D breast, 1.98 µM and 1.67 µM; in the assay with NCI-H460 lung, 1.09 µM and 1.25 µM; in the assay with LOX IMVI melanoma it was 1.81 µM and 1.52 µM.
Regarding `O=C(/C=C/c1ccc(B(O)O)cc1)/C=C/c1ccc(B(O)O)cc1`, the GI50 with DU-145 prostate is 4.63 µM; in the assay with SNB-19 CNS it was 6.09 µM; with BT-549 breast it was 1.55 µM; with T-47D breast, 2.7 µM; in the assay on NCI-H460 lung, 8.19 µM; in the assay on LOX IMVI melanoma, 1.59 µM. The TGI with DU-145 prostate amounted to 14.9 µM; in the assay on SNB-19 CNS, 21.2 µM; with BT-549 breast it was 3.35 µM; with T-47D breast, 12.3 µM; with NCI-H460 lung it was 23.6 µM; in the assay with LOX IMVI melanoma it was 3.07 µM.
As for `Cc1ccccc1NC(=S)Nc1ccccn1`, the GI50 in the assay with DU-145 prostate was above 100 µM; with SNB-19 CNS, above 100 µM; in the assay with BT-549 breast, above 100 µM; in the assay on T-47D breast, 55.7 µM; in the assay on NCI-H460 lung it was above 100 µM; with LOX IMVI melanoma, above 100 µM. The concentration for total growth inhibition (TGI) with DU-145 prostate, with SNB-19 CNS, with BT-549 breast, in the assay on T-47D breast, in the assay on NCI-H460 lung and with LOX IMVI melanoma was above 100 µM in each case.
